Structures can show the parent of a compound that is named as a salt.
Columns and labels:
[1] = tested on: IL-6 release from RAW264.7 cells; experiment: IL-6 release from LPS stimulated RAW264.7 cells; format: cell-based, mouse
Method: Specifically, A and B show the effects of the compound of Example 1 on soluble PGE2 and Il-6 secretion from RAW264.7 cells stimulated by 1 μg/mL of LPS. The cells were treated with the indicated concentrations of the compound of Example 1 for 2 hours, and then LPS was added and incubation continued for 4 hours. […]

p50 = target: T1, p50 (Homo sapiens, UniProt P19838); experiment: TransAM NF-κB Family DNA Binding ELISA, p50; details: p50 binding IC50 (uM), cells without % sign
T1 sequence (P19838 1-433 limits assumed): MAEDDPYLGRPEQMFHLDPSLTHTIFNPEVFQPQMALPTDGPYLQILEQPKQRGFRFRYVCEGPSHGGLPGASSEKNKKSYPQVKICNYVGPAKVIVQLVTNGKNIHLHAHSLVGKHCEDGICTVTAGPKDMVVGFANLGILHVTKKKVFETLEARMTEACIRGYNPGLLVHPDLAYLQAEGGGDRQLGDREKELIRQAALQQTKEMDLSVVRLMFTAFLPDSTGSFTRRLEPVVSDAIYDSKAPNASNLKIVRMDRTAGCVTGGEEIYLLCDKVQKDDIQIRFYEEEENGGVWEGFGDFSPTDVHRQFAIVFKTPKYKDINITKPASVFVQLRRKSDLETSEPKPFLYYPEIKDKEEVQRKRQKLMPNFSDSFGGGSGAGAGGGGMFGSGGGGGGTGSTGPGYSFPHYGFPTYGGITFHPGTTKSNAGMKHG
Method: (§2) Treated samples were then transferred to 30 μL Complete Binding Buffer (with DTT) in microplate wells pre-coated with the NF-κB consensus oligonucleotide. […] The plate was incubated for 1 hour at room temperature with gentle shaking and then washed 3 times with 200 μL 1× Wash Buffer. NF-κB p65, p50, p52, RelB, or c-Rel subunits bound to the plate were detected with 100 μL of the primary antibody (diluted 1:1000 in 1× Antibody Buffer) specific for that subunit. The plate was incubated for 1 hour at room temperature and then washed 3 times with 200 μL 1× Wash Buffer. Next, 100 μL of a HRP conjugated goat anti-rabbit antibody (diluted 1:1,000 in 1× Antibody Buffer) was added to each well. The plate was incubated for 1 hour at room temperature and then washed 4 times with 200 μL 1× Wash Buffer. 100 μL of room temperature Developing Solution was added to each well. The reaction was allowed to develop for 2-10 minutes until a medium dark blue color developed (depending on the subunit activity in the lot of extract or lot of recombinant protein used) and then the reaction was stopped with 100 μL Stop Solution yielding a yellow color. Absorbance was recorded using a Becton-Dickinson DTX 880 Multimode Detector at 450 nm with a reference wavelength subtracted at 620 nm.

NF-κB [2] = experiment: 293-cell pNF-κB-luc reporter assay, TNF-α induced; format: cell-based; details: HEK293 cells, NF-κB driven luciferase expression, read-out: 293/NFkB-luc EC50
Method: (§1) Inhibition of NF-κB in cells by the compound of Example 1. Two reporter cell assays were used to determine the ability of the compound of Example 1 to inhibit NE-KB driven transcription. The first assay was a 293-cell based assay with a stably integrated pNF-κB-luc reporter plasmid containing 3 NF-κB promoter elements. The second assay was a 293-cell based assay with a stably integrated pTRH1-NF-κB-dscGFP reporter containing 4 NF-κB promoter elements. Cells were treated with 0, 0.2, 1, 10, 20 and 40 μM of the compound of Example 1 for 2 hours then were induced with 20 ng/ml TNF-α for 18 hours. Following the induction, luminescence or fluorescence was quantified using a Beckman-Coulter 2300 plate reader. […] These values represent the median value generated from three independent experiments±the standard error. As a control, 0.5% DMSO treated and untreated cells were compared to verify that the Example 1 carrier had no effect on the expression of luciferase or in the readout of the assay. There was a slight decrease in the output from the assay in the DMSO treated population although it was not statistically significant. As a result of the controls, the decrease in activity in the drug treated samples was compared to the DMSO control sample.

p52 = target: T2, p52 (Homo sapiens, UniProt Q00653); experiment: TransAM NF-κB Family DNA Binding ELISA, p52; details: for IC50: p52 binding IC50 (uM), cells without % sign
T2 sequence (Q00653 1-454 limits assumed): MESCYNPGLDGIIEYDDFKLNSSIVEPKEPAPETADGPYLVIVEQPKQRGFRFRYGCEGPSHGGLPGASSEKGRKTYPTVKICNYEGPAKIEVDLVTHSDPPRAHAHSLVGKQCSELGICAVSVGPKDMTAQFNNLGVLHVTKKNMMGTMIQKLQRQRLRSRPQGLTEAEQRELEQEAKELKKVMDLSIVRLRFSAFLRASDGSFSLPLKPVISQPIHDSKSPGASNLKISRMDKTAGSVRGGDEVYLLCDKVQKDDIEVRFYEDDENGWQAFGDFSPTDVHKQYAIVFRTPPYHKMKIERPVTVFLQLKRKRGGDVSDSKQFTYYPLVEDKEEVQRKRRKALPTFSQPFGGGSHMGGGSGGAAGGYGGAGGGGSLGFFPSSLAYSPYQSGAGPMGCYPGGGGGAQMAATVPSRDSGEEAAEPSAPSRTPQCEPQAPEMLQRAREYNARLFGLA
Method: as §2

p65 (RelA) = p65 (RelA) (Homo sapiens, UniProt Q04206); experiment: TransAM NF-κB Family DNA Binding ELISA, p65; details: p65 binding IC50 (uM), binding to NF-κB sites
Chain of p65 (RelA) (Q04206 whole entry): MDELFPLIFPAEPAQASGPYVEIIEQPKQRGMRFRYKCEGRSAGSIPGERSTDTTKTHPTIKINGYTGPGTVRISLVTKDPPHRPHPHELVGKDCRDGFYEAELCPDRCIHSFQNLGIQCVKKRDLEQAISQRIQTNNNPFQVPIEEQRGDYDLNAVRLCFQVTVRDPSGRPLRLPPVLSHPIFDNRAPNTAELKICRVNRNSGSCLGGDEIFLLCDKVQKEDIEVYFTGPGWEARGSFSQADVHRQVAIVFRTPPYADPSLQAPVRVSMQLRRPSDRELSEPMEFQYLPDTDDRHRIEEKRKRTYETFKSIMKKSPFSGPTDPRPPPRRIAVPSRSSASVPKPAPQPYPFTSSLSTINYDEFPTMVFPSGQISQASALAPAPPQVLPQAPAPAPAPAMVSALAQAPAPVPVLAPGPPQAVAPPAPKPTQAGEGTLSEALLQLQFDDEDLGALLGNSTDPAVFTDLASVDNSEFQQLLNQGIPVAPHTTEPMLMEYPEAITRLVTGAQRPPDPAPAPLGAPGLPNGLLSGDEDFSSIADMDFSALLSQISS
Method: as §2

NF-κB [3] = experiment: 293-cell pTRH1-NF-κB-dscGFP reporter assay, TNF-α induced; format: cell-based; details: NF-κB driven GFP expression, read-out: NF-kB/293/GFP EC50
Method: as §1

c-Rel = target: T3, c-Rel (Homo sapiens, UniProt Q04864); experiment: TransAM NF-κB Family DNA Binding ELISA, c-Rel; details: at 5 uM
T3 sequence (Q04864 2-619 limits assumed): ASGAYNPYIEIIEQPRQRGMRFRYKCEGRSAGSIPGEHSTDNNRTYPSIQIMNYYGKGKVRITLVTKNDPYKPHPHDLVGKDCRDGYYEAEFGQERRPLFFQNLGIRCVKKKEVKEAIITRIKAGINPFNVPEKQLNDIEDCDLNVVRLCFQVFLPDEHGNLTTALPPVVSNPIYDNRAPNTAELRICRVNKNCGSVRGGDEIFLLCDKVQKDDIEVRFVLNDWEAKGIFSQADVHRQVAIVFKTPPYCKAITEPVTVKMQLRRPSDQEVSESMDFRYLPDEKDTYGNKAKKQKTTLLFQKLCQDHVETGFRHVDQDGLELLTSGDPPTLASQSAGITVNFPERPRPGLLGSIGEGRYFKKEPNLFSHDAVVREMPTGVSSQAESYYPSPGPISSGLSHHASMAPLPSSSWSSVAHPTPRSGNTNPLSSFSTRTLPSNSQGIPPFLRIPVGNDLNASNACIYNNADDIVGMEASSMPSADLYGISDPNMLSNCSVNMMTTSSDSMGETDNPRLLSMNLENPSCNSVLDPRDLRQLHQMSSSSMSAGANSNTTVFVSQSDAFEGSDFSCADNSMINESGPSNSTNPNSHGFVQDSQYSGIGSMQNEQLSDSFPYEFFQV

RelB = target: T4, RelB (Homo sapiens, UniProt Q01201); experiment: TransAM NF-κB Family DNA Binding ELISA, RelB; details: at 5 uM
T4 sequence (Q01201 1-579): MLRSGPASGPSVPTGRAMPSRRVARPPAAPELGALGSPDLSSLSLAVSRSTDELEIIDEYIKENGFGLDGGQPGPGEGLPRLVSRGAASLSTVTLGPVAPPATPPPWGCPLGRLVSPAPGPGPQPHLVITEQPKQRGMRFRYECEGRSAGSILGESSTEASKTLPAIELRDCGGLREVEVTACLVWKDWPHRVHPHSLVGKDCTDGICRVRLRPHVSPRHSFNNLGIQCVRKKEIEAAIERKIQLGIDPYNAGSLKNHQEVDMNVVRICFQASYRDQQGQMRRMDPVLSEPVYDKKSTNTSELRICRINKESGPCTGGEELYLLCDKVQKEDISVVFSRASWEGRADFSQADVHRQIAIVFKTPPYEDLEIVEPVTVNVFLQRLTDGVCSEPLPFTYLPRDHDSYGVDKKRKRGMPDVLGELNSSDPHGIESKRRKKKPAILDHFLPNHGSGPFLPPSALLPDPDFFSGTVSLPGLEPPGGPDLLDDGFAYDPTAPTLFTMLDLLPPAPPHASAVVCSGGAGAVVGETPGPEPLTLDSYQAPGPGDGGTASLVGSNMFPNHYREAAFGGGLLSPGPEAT
T4 sequence (Q00653 1-454 partner limits assumed): T2 sequence (Q00653 1-454 limits assumed)
Method: as §2

[4] = Mus musculus, RAW264.7, RAW 264.7 cells
[5] = Homo sapiens, HEK293, HEK293 cells
[6] = RAW 264.7 cells, trifluoroacetate

Row | Compound | EC50 [1, 4] [nM] | IC50 (p50) [µM] | EC50 (NF-κB [2]) [µM] | IC50 (p52) [µM] | IC50 (p65 (RelA)) [µM] | EC50 (NF-κB [3]; [5]) [µM] | also measured
1 | COc1cccnc1C(=O)NC1=CC(=O)C2OC2C1O (racemic) [Example 22, (±)-3-methoxy-pyridine-2-carboxylic acid (2-hydroxy-5-oxo-7-oxa-bicyclo[4.1.0]hept-3-en-3-yl)-amide trifluoroacetate] | – | – | – | – | 13.2 | – | EC50 [1, 6]: > 34000 nM; EC50 (NF-κB [2]; trifluoroacetate): > 34 µM
2 | O=C(NC1=CC(=O)C2OC2C1O)c1ccc(C(F)(F)F)nc1O (racemic) [Example 23, (±)-2-hydroxy-N-(2-hydroxy-5-oxo-7-oxa-bicyclo[4.1.0]hept-3-en-3-yl)-6-trifluoromethyl-nicotinamide] | 24800 | – | > 40 | – | 6.4 | > 40 | –
3 | CS(=O)(=O)O.O=C(NC1=CC(=O)C2OC2C1O)c1ncccc1O (racemic) [Example 12, (±)-3-hydroxy-N-(2-hydroxy-5-oxo-7-oxabicyclo[4.1.0]hept-3-en-3-yl)picolinamide, mesylate] | – | – | – | – | – | – | EC50 ([1]; RAW 264.7 cells, mesylate): 2500 nM; EC50 (NF-κB [2]; mesylate): 22 µM; p52 binding % inhibit. at 5 uM (p52): 14%; c-Rel binding % inhibit. at 5 uM (c-Rel): 7%; RelB binding % inhibit. at 5 uM (RelB): 6%
4 | Cc1ccc(S(=O)(=O)O)cc1.O=C(NC1=CC(=O)C2OC2C1O)c1ncccc1O (racemic) [Example 14, (±)-3-hydroxy-N-(2-hydroxy-5-oxo-7-oxabicyclo[4.1.0]hept-3-en-3-yl)picolinamide tosylate] | – | – | – | – | – | – | EC50 ([1]; RAW 264.7 cells, tosylate): 3300 nM; EC50 (NF-κB [2]; tosylate): 23 µM; p52 binding % inhibit. at 5 uM (p52): 6%; c-Rel binding % inhibit. at 5 uM (c-Rel): 1%; RelB binding % inhibit. at 5 uM (RelB): 9%
5 | Cc1ncc(C(=O)NC2=CC(=O)C3OC3C2O)c(O)n1 (racemic) [Example 24, (±)-4-hydroxy-2-methyl-pyrimidine-5-carboxylic acid (2-hydroxy-5-oxo-7-oxa-bicyclo[4.1.0]hept-3-en-3-yl)-amide] | 27100 | – | > 48 | – | 2.3 | > 48 | –

The next lines start with results.

Row | EC50 [1, 4] [nM] | IC50 (p50) [µM] | EC50 (NF-κB [2]) [µM] | IC50 (p52) [µM] | IC50 (p65 (RelA)) [µM] | EC50 (NF-κB [3]; [5]) [µM] | Compound | also measured
6 | 760 | > 608 | 2.7 | > 608 | 36 | 4.3 | COc1ncccc1C(=O)NC1=CC(=O)C2OC2C1=O (racemic) [Example 30, (±)-N-(2,5-Dioxo-7-oxa-bicyclo[4.1.0]hept-3-en-3-yl)-2-methoxy-nicotinamide] | –
7 | 1000 | 28 | 3.9 | 21 | 38 | 5.6 | COc1cc2ccccc2nc1C(=O)NC1=CC(=O)C2OC2C1O (racemic) [Example 31, (±)-N-(2-hydroxy-5-oxo-7-oxabicyclo[4.1.0]hept-3-en-3-yl)-3-methoxyquinoline-2-carboxamide] | –
8 | – | > 378 | – | > 378 | 4.8 | – | COc1c(C(=O)NC2=CC(=O)C3OC3C2O)ccc2cccnc12 (racemic) [Example 33, (±)-N-(2-hydroxy-5-oxo-7-oxabicyclo[4.1.0]hept-3-en-3-yl)-8-methoxyquinoline-7-carboxamide trifluoroacetate] | EC50 [1, 6]: 260 nM; EC50 (NF-κB [2]; trifluoroacetate): 0.53 µM; EC50 (NF-κB [3]; HEK293 cells, trifluoroacetate): 2 µM
9 | 42000 | 90 | > 51 | 96 | 12 | 39 | O=C(NC1=CC(=O)C2OC2C1=O)c1ccncc1O (racemic) [Example 34, (±)-N-(2,5-dioxo-7-oxabicyclo[4.1.0]hept-3-en-3-yl)-3-hydroxyisonicotinamide] | –
10 | 710 | – | 9.7 | – | 30 | 6.7 | O=C(NC1=CC(=O)C2OC2C1O)c1nc(Cl)c2ccccc2c1O (racemic) [Example 27, (±)-1-chloro-4-hydroxy-isoquinoline-3-carboxylic acid (2-hydroxy-5-oxo-7-oxa-bicyclo[4.1.0]hept-3-en-3-yl)-amide] | –
11 | 240 | > 514 | 3.4 | > 514 | 30 | 3 | COc1c(C(=O)NC2=CC(=O)C3OC3C2=O)ccc2cccnc12 (racemic) [Example 32, (±)-N-(2,5-diose-7-oxabicyclo[4.1.0]hept-3-en-3-yl)-8-methoxyquinoline-7-carboxamide] | –
12 | 440 | 148 | 3.1 | 81 | 50 | 5.3 | COc1nc2ccccc2cc1C(=O)NC1=CC(=O)C2OC2C1=O (racemic) [Example 35, (±)-N-(2,5-dioxo-7-oxabicyclo[4.1.0]hept-3-en-3-yl)-2-methoxyquinoline-3-carboxamide] | –
